Assay results reported in patent US11207331B2, “Agents, compositions and methods for enhancing neurological function” (University of Southern California, priority 2007, dated 2021).

Assays:
[1] = tested on: three month old male 3×TgAD mouse hippocampus; assay: Flow cytometry of BrdU labeled cells 24 hours after subcutaneous or transdermal THP; assay type: in vivo
Description: Flow cytometry assay detected total BrdU labeled cells 24 hours following THP administration via (A) subcutaneous and (B) transdermal routes. […] BrdU (100 mg/kg) was administered by intraperitoneal injection one hour after THP administration. Transdermal gel THP dose-response for 5, 10, and 50 mg/kg (FIG. 21B) was compared to 0 mg/kg control vehicle (negative control) and subcutaneous injection of 10 mg/kg (positive control) (FIG. 21A). […] Immunoblots of proliferating cell nuclear antigen (PCNA), an S-phase marker and cyclin dependent kinase 1 (CDK1/cdc2), an M-phase marker, are shown in FIGS. 21C and 21D, respectively. Hippocampus protein expression of PCNA and CDK1/cdc2 was normalized to β-tubulin loading control and compared relative to the vehicle control by immunoblot. […] The data were analyzed by one way ANOVA followed by a t test (two samples assuming equal variance) vs. vehicle. Data are presented as the mean±SEM, n=5, *=P<0.05, and **=P<0.01.

[2] = tested on: BrdU positive cells per hippocampus; assay: Survival of BrdU labeled cells in hippocampus after behavioural testing; assay type: in vivo, mouse
Description: Mice of each genotype and age received a subcutaneous (s.c.) injection of THP at a concentration of 10 mg/kg body weight (BW), an optimal dose of THP-[…] based on our previous studies. One hour after THP injection, mice were intraperitoneally (i.p.) injected with 100 mg/kg BW bromodeoxyuridine (BrdU). Two experimental paradigms were used: 1) THP treatment for behavior and cell survival assessment, in which animals received a single shot of THP/vehicle, followed by a 7-day neurogenesis and migration phase, followed by a 5-day trace-conditioning test followed 9 days later by a 1-day memory test, and scarified 21 days after a single THP injection at which time FACS analysis of BrdU positive cells was performed to assess cell survival; 2).
Hippocampus was dissected from the fixed hemispheres from cell survival assessment experiment using consistent anatomical landmarks as criteria for dissection as described in the literature. The rostral ⅓ of the hippocampus lobe was removed to avoid the subventricular zone and rostral migratory stream proliferative pools. The extracted hippocampi were homogenized using Next advance 24 sample homogenizer (Next Advance Inc., NY) for 3 minutes on speed 7. This procedure lyses the plasma lemma while preserves the nuclear envelope intact. The nuclei sample was collected into a regular 1.5 mL microcentrifuge tube by washing the beads and tube 4 times using 200 μL of PBS, and then centrifuged for 10 minutes at 10,000 rpm. Once all of the nuclei were collected in a pellet, the supernatant was discarded. The pellet was then re-suspended in 600 μL of PBS plus 0.5% Triton x-100. The number of nuclear density was estimated by counting the propidium iodide (PI), a fluorescent molecule stoichiometrically binds to DNA by intercalating between the bases with no sequence preference, positive particles. Aliquots of 25 μl were re-suspended in 200 μL of a 0.2 M solution of boric acid, pH 9.0, and heated for 1 h at 75° C. for epitope retrieval. After washed in PBS, the nuclei were incubated for 24 hours at 4° C. with primary mouse monoclonal anti-BrdU antibody (1:100, Abcam, Ab12219) and subsequently with FITC-conjugated goat anti-mouse IgG secondary antibody (1:100 in PBS; Vector Labs, FI-2001). The remainder of cell suspension is diluted to 500 μL and sent for flow cytometry assay using Beckman FC 500 System with CXP Software. Propidium iodide (PI) cells were first gated on a histogram; the expressing cells were visualized on a forward/side scatter plot. PI cells were ‘back-gated’ on the forward/side scatter plot to eliminate debris prior to analysis; this also eliminated auto fluorescence of the sample. Gates were always set using dissociates with cell aliquots which lack of the first antibody, but which were incubated with second antibody and processed alongside the experimental procedure. PI-labeled cells in a fixed volume were gated, and the number of cells showing BrdU signal was analyzed. Data were expressed as total positive cells per hippocampus.
To determine whether cognitive performance was correlated with survival of neuroprogenitor cells, hippocampi from behavioral test animals were analyzed for total number of BrdU positive cells using fluorescence activated cell sorting (FACS). As BrdU was administered one hour post THP injection at the start of the behavioral experiment, FACS analysis detected the total number of surviving BrdU+ cells and thus can be used as a marker of neural progenitor cells that survived and integrated into the hippocampal neuronal network. In 6-months-old vehicle treated non-Tg mice, BrdU+ cell survival was 2003.6±229.5.
We sought to determine whether cell survival was directly attributable to THP exposure or whether cell survival was dependent on the training experience. Thus, the relationship between survival of BrdU positive cells and cognitive performance on the memory phase of the behavioral testing was analyzed. […]

CC(=O)[C@H]1CC[C@H]2[C@@H]3CC[C@H]4C[C@H](O)CC[C@]4(C)[C@H]3CC[C@]12C [THP, 3α-hydroxy-5α-pregnan-20-one] was tested, and the “BrdU cell numbers vs vehicle” value ([1]; 10 mg/kg dose) was “significantly increases BrdU cell numbers”, the “optimal dose to significantly increase BrdU cell numbers” value ([1]; subcutaneous and transdermal routes) was 10 mg/kg and the “THP-induced proliferation (FACS BrdU) after 23 days of learning and memory” value ([2]; 3×TgAD mice, 3 and 6 month, declined with age thereafter) was “Significant THP-induced proliferation”. The “fold promotion of BrdU+ cell survival” value ([2]; 3×TgAD mice, 6-months-old) was “greater than 2 fold”, the “surviving BrdU+ cells per hippocampus (FACS)” value ([2]; 3×TgAD mice, 6-months-old, 21 days after 10 mg/kg) was 1372.5±326.2 and the “surviving BrdU+ cells per hippocampus (FACS)” value ([2]; 3×TgAD mice, 9-months-old) was 899.3±313.1. For the same molecule, the BrdU cells ([2]; 3×TgAD mice, survived BrdU cells) was 1088, the “number of surviving cells generated 20 days prior to sacrifice” value ([2]; 3×TgAD mice, unbiased stereological analysis) was “near doubling in the number of surviving cells” and the “BrdU+ cell survival vs vehicle” value ([2]; 12-months-old non-tg and 3×TgAD mice) was “no significant effect”. For the same molecule, the “BrdU positive cells, treatment vs vehicle” value ([2]; Non-Tg mice, 3, 6, 9, 12 month) was “did not show statistical significance between treatment and vehicle groups”, the “BrdU+ cell number 21 days after THP administration” value ([2]; all ages) was “an increase in BrdU+ cell number was observed at all ages” and the “surviving BrdU+ cells per hippocampus (FACS)” value ([2]; non-Tg mice, 6-months-old, 21 days after 10 mg/kg) was 2772.2±534.9. The “surviving BrdU+ cells per hippocampus (FACS)” value ([2]; non-Tg mice, 9-months-old) was 2255.3±662.4.
